Data taken from article PMC10733197, “Utilization of Rosuvastatin and Endogenous Biomarkers in Evaluating the Impact of Ritlecitinib on BCRP, OATP1B1, and OAT3 Transporter Activity” (Pharmaceutical Research, 2023).

Key:
BCRP = target: T1, BCRP (Homo sapiens, UniProt Q9UNQ0); assay: BCRP inhibition in BCRP-expressing membrane vesicles with rosuvastatin as substrate; format: biochemical; details: for [I]2/IC50 ratio (G-value): ritlecitinib 200 mg, cutoff = 10
T1 sequence (Q9UNQ0 1-655): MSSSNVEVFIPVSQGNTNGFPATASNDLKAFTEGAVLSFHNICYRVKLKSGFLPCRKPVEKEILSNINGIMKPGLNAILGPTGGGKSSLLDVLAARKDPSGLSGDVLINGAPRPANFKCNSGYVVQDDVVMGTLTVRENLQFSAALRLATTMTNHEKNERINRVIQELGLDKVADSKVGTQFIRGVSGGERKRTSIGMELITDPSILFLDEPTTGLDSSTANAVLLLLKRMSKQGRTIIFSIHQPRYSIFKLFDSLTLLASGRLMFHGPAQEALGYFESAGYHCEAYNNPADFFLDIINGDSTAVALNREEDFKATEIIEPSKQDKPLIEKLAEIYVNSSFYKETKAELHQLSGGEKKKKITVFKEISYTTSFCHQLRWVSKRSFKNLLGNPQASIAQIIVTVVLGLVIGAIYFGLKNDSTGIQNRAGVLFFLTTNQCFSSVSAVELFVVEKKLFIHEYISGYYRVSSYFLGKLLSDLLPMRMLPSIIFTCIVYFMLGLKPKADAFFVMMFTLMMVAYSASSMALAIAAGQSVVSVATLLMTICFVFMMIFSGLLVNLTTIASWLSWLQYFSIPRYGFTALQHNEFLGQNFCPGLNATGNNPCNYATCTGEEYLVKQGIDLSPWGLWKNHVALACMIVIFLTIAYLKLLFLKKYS
Procedure: As described previously, BCRP inhibition by ritlecitinib was measured using BCRP-expressing membrane vesicles with non-labeled rosuvastatin as substrate.
(§1) In all cases, ritlecitinib (0.018 to 1000 µM) and metabolite M2 (0.018 to 300 µM) was tested over a wide range of final concentrations dissolved in dimethyl sulfoxide (the final concentration of dimethyl sulfoxide in the assays was 1% v/v). For each transporter, the IC50 was estimated using a four-parameter logistic equation (Eq. 1) using GraphPad Prism software (GraphPad Software Inc, La Jolla, CA).1 %UptakeActivity=Bottom+(Top-Bottom)/1+10^(LogIC50-inhib*HillSlope)

OAT3 = target: T2, OAT3 (Homo sapiens, UniProt Q8TCC7); assay: OAT3-mediated 3H-E3S uptake inhibition in transfected HEK293 cells; format: cell-based; details: for Fraction Inhibited / Triggers Drug Interaction Cutoff / Cmax,u/IC50 ratio: OAT3; for Fraction Inhibited: Cmax,u/(Cmax,u + IC50) (Eq. 2); for Triggers Drug Interaction Cutoff: Cmax,u/IC50 cutoff 0.1 (FDA); for Triggers Drug Interaction Cutoff / Cmax,u/IC50 ratio: 0.02 (EMA); for Cmax,u/IC50 ratio: cutoff 0.1 (FDA), ritlecitinib 200 mg; for IC50: renal OAT3, E3S as substrate (0.1 µM per table footnote), 3 min, HEK293, mean ± SD, n = 3
T2 construct: expressed in transfected cells; host or cells: HEK293
T2 sequence (Q8TCC7 1-542): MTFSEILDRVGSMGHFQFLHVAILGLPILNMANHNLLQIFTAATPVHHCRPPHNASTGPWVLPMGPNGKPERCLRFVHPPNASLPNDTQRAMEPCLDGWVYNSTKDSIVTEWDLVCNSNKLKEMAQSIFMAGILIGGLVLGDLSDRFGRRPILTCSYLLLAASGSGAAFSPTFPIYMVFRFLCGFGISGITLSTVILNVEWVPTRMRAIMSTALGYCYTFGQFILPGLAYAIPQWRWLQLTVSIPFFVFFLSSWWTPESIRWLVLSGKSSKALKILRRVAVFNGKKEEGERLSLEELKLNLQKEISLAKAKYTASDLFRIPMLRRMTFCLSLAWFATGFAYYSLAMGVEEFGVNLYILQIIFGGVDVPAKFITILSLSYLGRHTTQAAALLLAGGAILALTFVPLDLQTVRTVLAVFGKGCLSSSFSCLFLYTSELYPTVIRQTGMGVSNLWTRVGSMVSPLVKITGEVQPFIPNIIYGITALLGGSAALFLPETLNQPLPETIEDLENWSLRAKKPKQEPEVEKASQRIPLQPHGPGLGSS
Procedure: Sources of human embryonic kidney (HEK) 293 cells expressing individual transfected human solute carriers (SLC), test substrates, and cell culture reagents, as well as detailed cell culture methods, incubations, and sample processing, have been described previously. SLC included hepatic OATP1B1, OATP1B3, and renal OAT1 and OAT3. […] Likewise, the uptake of non-labeled rosuvastatin (Biosynth, San Diego, CA) at 0.3—0.5 µM was determined for OATP1B1 and OATP1B3 at 1—3 min, and CP-I (Frontier Specialty Chemicals, Logan, UT) at 0.1 µM was determined for OATP1B1 and OATP1B3 at 10 min [14].
as §1
At the end of the uptake and inhibition experiment, cellular accumulation of ^3H-PAH and ^3H-E3S was determined using liquid scintillation counting as previously described. Rosuvastatin uptake was determined using a tandem high performance liquid chromatography (LC)-mass spectrometry (MS) assay.
Assumes no substrate-dependent shift in IC50 versus PDA.^1 Each OAT form was singularly transfected in human embryonic kidney 293 cells.

[1] = human, in vivo
Procedure: This was a Phase 1, 2-period fixed-sequence, multiple-dose, open-label study of the effect of ritlecitinib on the pharmacokinetics and renal clearance of a single, oral dose of rosuvastatin in healthy participants (Fig. 1). The safety and tolerability of rosuvastatin when coadministered with ritlecitinib was also evaluated.
In Period 1 on Day 1, following an overnight fast of at least 10 h, participants received a single oral administration of rosuvastatin 10 mg tablet. Period 1 was immediately followed by Period 2 with no washout. In Period 2 (coadministration), participants received oral ritlecitinib 200 mg once daily (QD) under non-fasting conditions for 7 days. On the morning of Day 8, a single dose of rosuvastatin 10 mg tablet was administered orally within approximately 5 min after administration of a ritlecitinib 200 mg dose under fasting conditions. On Days 9 and 10, participants continued to receive oral ritlecitinib 200 mg QD under non-fasting conditions.

CYP1A2 = details: cited from earlier work

Compound	Triggers Drug Interaction Cutoff (BCRP; [I]2/IC50 cutoff = 10)	IC50 (BCRP; intestinal BCRP, RSV 0.2 µM as substrate, membrane vesicles, mean ± SD, n = 3) [µM]	[I]2/IC50 ratio (G-value) (BCRP)	[I]2/IC50 ratio (G-value) (BCRP; listed as ritlecitinib)	Fraction Inhibited (OAT3)	Fraction Inhibited (OAT3; listed as ritlecitinib)	Triggers Drug Interaction Cutoff (OAT3)	Cmax,u/IC50 ratio (OAT3)	IC50 (OAT3) [µM]	serious AEs, severe AEs, dose reductions or discontinuations due to AEs [1]	inhibition of CYP1A2 (CYP1A2; classification in words)	contribution of CYP1A2 pathway to metabolism of ritlecitinib (CYP1A2; ref data not published) [%]	% inhibition at the highest concentration tested (OAT3; OAT3 (E3S), highest concentration 300 µM) [%]
C=CC(=O)N1C[C@H](Nc2ncnc3[nH]ccc23)CC[C@@H]1C [Ritlecitinib, ritlecitinib]	Yes	27 ± 2	104	~ 100	0.1	≤ 0.1	Yes	0.11	41 ± 3	no serious adverse events	moderate inhibitor	< 25	–
C[C@H]1CC[C@@H](Nc2ncnc3[nH]ccc23)CN1C(=O)CCSC[C@H](N)C(=O)O [M2]	–	–	–	–	< 0.01	–	No	< 0.01	> 300	–	–	–	43
